According to patent US20190053492A1, “SUBSTITUTED PYRIDINE COMPOUNDS AS PESTICIDES” (Bayer CropScience Aktiengesellschaft, priority 2016, published 2019):
Where two headings read alike, the source gives them in different places.

Legend:
[1] = log P by HPLC on reversed-phase column (C 18), EEC Directive 79/831 Annex V.A8; type: physicochemical; settings: 55° C.; for LOGP_HCOOH: log P (HCOOH); for chromatographic logP: reversed-phase HPLC column (C 18)
Description: Temperature: 55° C. […] Called log P (HCOOH) in the table. […] Called log P (neutral) in the table.

[2] = tested on: Phaedon cochleariae; assay: Phaedon cochleariae spray test; type: in vivo; settings: after 7 days, Chinese cabbage leaf discs
Description: Phaedon cochleariae—Spray Test
(§1) Solvent: 78.0 parts by weight of acetone • • 1.5 parts by weight of dimethylformamide
(§2) Emulsifier: alkylaryl polyglycol ether
(§3) To produce a suitable active ingredient formulation, 1 part by weight of active ingredient is dissolved with the specified parts by weight of solvent and made up with water containing an emulsifier concentration of 1000 ppm until the desired concentration is attained. To produce further test concentrations, the formulation is diluted with emulsifier-containing water.
Discs of Chinese cabbage leaves (Brassica pekinensis) are sprayed with an active ingredient formulation of the desired concentration and, after drying, populated with larvae of the mustard beetle (Phaedon cochleariae).
After 7 days, the efficacy in % is determined. 100% means that all the beetle larvae have been killed; 0% means that no beetle larvae have been killed.

[3] = tested on: Spodoptera frugiperda; assay: Spodoptera frugiperda spray test; type: in vivo; settings: after 7 days, maize leaf discs
Description: Spodoptera frugiperda—Spray Test
as §1, §2, §3
Leaf discs of maize (Zea mays) are sprayed with an active ingredient formulation of the desired concentration and, after drying, populated with caterpillars of the armyworm (Spodoptera frugiperda).
After 7 days, the efficacy in % is determined. 100% means that all the caterpillars have been killed; 0% means that no caterpillar has been killed.

[4] = acidic range pH 2.7, 0.1% aqueous formic acid and acetonitrile, reversed-phase column (C 18)
[5] = log P, neutral range, HPLC on reversed-phase column (C 18)
[6] = log P (neutral), HPLC reversed-phase column (C 18)
[7] = acidic range at pH 2.7, 0.1% aqueous formic acid and acetonitrile, HPLC on reversed-phase column (C 18)

Row | SMILES | LOGP_HCOOH [1, 4] | LOGP_NEUTRAL [1, 5] | LOGP_HCOOH [1, 7] | efficacy (beetle larvae killed) ([2]; application rate 500 g/ha) [%] | efficacy (caterpillars killed) ([3]; application rate 500 g/ha) [%] | other results
1 | O=C(NC1CC1)c1cc(-c2ccc(S(=O)(=O)C(F)(F)F)cc2)cc(NC(=O)C2CC2)n1 [Example I-103] | 3.28 | 3.17 | – | 100 | 100 | –
2 | CONC(=O)c1cc(-c2ccc(OC(F)(F)F)cc2)cc(NC(=O)C2CC2)n1 [Example I-234] | 2.97 | – | – | 100 | – | LOGP_NEUTRAL [1, 6]: 2.89
3 | O=C(NC1CCOC1=O)c1cc(-c2ccc(OC(F)(F)F)cc2)cc(NC(=O)C2CC2)n1 (stereo not shown) [Example I-135] | – | – | 3.11 | 83 | 100 | –
4 | O=C(NCc1ccc(Cl)nc1)c1cc(-c2ccc(C(F)(F)F)cc2)cc(NC(=O)C2CC2)n1 [Example I-011] | 3.67 | 3.55 | – | 100 | 100 | efficacy (beetle larvae killed) ([2]; application rate 100 g/ha): 100%
5 | C[C@H](NC(=O)c1cc(-c2ccc(OC(F)(F)F)cc2)cc(NC(=O)C2CC2)n1)c1ccc(C(F)(F)F)cc1 [Example I-061] | 5.01 | 4.89 | – | 100 | 100 | efficacy (caterpillars killed) ([3]; application rate 100 g/ha): 100%
6 | N#Cc1cc(F)c(CNC(=O)c2cc(-c3ccc(C(F)(F)C(F)(F)F)c(F)c3)cc(NC(=O)C3CC3)n2)c(F)c1 [Example I-248] | 4.55 | – | – | 100 | 100 | efficacy (beetle larvae killed) ([2]; application rate 100 g/ha): 100%; efficacy (caterpillars killed) ([3]; application rate 100 g/ha): 100%
7 | O=C(NCc1ccc([N+](=O)[O-])cc1)c1cc(-c2ccc(C(F)(F)C(F)(F)F)c(F)c2)cc(NC(=O)C2CC2)n1 [Example I-209] | – | 4.33 | 4.34 | – | – | efficacy (beetle larvae killed) ([2]; application rate 100 g/ha): 100%
8 | N#CCCCONC(=O)c1cc(-c2ccc(OC(F)(F)F)cc2)cc(NC(=O)C2CC2)n1 [Example I-238] | 3.13 | – | – | 83 | – | –
9 | CC(C)C(=O)Nc1cc(-c2ccc(C(F)(F)F)cc2)cc(C(=O)NCc2c(F)cc(C#N)cc2F)n1 [Example I-069] | 4.16 | 4.05 | – | 83 | – | –
10 | N#Cc1ccc(CNC(=O)c2cc(-n3ccc(C(F)(F)C(F)(F)F)n3)cc(NC(=O)C3CC3)n2)cc1 [Example I-188, N-(4-Cyanobenzyl)-6-[(cyclopropylcarbonyl)amino]-4-[3-(pentafluoroethyl)-1H-pyrazol-1-yl]pyridine-2-carboxamide] | – | 3.57 | 3.70 | – | – | chromatographic logP ([1]; pH 2.7, LC-MS acidic range, pH 2.7, 0.1% formic acid/acetonitrile, read-out: log P (acidic) / log P (HCOOH)): 3.7; chromatographic logP ([1]; pH 7.8, LC-MS neutral range, pH 7.8, ammonium hydrogencarbonate/acetonitrile, read-out: log P (neutral)): 3.57; pest or weed control at 100 g/ha ([2]; Phaedon cochleariae, foliar, 168 h, application rate 100 g/ha, read-out: efficacy (beetle larvae killed)): 100%; pest or weed control at 500 g/ha ([2]; Phaedon cochleariae, foliar, 168 h, application rate 500 g/ha, read-out: efficacy (beetle larvae killed)): 100%
11 | N#Cc1ccc(CNC(=O)c2cc(-c3ccc(S(=O)(=O)C(F)(F)F)cc3)cc(NC(=O)C3CC3)n2)cn1 [Example I-097] | 3.24 | 3.11 | – | 100 | – | –
12 | O=C(NOCC1CC1)c1cc(-c2ccc(OC(F)(F)F)cc2)cc(NC(=O)C2CC2)n1 [Example I-236] | 3.59 | – | – | 100 | – | LOGP_NEUTRAL [1, 6]: 3.50
13 | N#Cc1ccc(CNC(=O)c2cc(-c3cc(F)c(C(F)(F)C(F)(F)F)cc3Cl)cc(NC(=O)C3CC3)n2)cc1 [Example I-269] | 4.34 | – | – | – | 83 | –
14 | N#Cc1ccc2c(c1)CCC2NC(=O)c1cc(-c2ccc(OC(F)(F)F)cc2)cc(NC(=O)C2CC2)n1 (stereo not shown) [Example I-164] | – | 4.24 | 4.42 | – | 100 | efficacy (caterpillars killed) ([3]; application rate 100 g/ha): 100%
15 | N#Cc1ccc(CNC(=O)c2cc(-c3ccc(OC(F)(F)F)cc3)cc(NC(=O)Cc3ccc([N+](=O)[O-])cc3)n2)cc1 [Example I-211] | – | 4.01 | 4.16 | – | 100 | efficacy (caterpillars killed) ([3]; application rate 100 g/ha): 83%
16 | N#Cc1ccc(CNC(=O)c2cc(-c3ccc(C(F)(F)F)cc3)cc(NC(=O)c3ccccc3Cl)n2)cc1 [Example I-047] | 4.26 | 4.15 | – | – | 83 | –
17 | O=C(NCc1ccc(C(F)(F)F)cc1F)c1cc(-c2ccc(C(F)(F)F)cc2)cc(NC(=O)C2CC2)n1 [Example I-054] | 4.68 | 4.59 | – | – | 100 | –
18 | COC(C)C(=O)Nc1cc(-c2ccc(OC(F)(F)F)cc2)cc(C(=O)NCc2ccc(C#N)cc2)n1 (stereo not shown) [Example I-223] | – | 3.91 | 4.01 | – | 100 | –

More lines, main results first:

Row | LOGP_HCOOH [1, 4] | LOGP_NEUTRAL [1, 5] | LOGP_HCOOH [1, 7] | SMILES | efficacy (beetle larvae killed) ([2]; application rate 500 g/ha) [%] | efficacy (caterpillars killed) ([3]; application rate 500 g/ha) [%] | other results
19 | 4.57 | 4.44 | – | O=C(NCc1ccc(Cl)c(F)c1)c1cc(-c2ccc(C(F)(F)F)cc2)cc(NC(=O)C2CC2)n1 [Example I-056] | 100 | 100 | efficacy (caterpillars killed) ([3]; application rate 100 g/ha): 100%
20 | 4.17 | – | – | N#Cc1ccc(CNC(=O)c2cc(-c3ccc(C(F)(F)C(F)(F)F)c(F)c3F)cc(NC(=O)C3CC3)n2)cc1 [Example I-272] | 83 | – | –
21 | 3.53 | 3.47 | – | O=C(NCc1ccc(Cl)nc1)c1cc(-c2ccc(Cl)cc2)cc(NC(=O)C2CC2)n1 [Example I-024] | 100 | – | –
22 | 3.24 | – | – | N#Cc1ccc(CNC(=O)c2cc(-c3ccc(F)cc3)cc(NC(=O)C3CC3)n2)cc1 [Example I-002] | 100 | – | –
23 | – | 3.88 | 4.04 | N#Cc1ccc(CNC(=O)c2cc(-c3ccc(OC(F)(F)F)cc3)cc(NC(=O)C3(C#N)CC3)n2)cc1 [Example I-210] | 83 | – | efficacy (beetle larvae killed) ([2]; application rate 100 g/ha): 83%
24 | 3.98 | 3.85 | – | O=C(NCc1ccc([N+](=O)[O-])cc1)c1cc(-c2ccc(C(F)(F)F)cc2)cc(NC(=O)C2CC2)n1 [Example I-084] | 100 | – | –
25 | – | 4.24 | 4.32 | N#Cc1ccc(CNC(=O)c2cc(-c3ccc(OC(F)(F)F)c(Cl)c3)cc(NC(=O)C3CC3)n2)cc1 [Example I-230] | – | – | efficacy (beetle larvae killed) ([2]; application rate 100 g/ha): 83%
26 | – | 3.46 | 3.55 | N#Cc1ccc(CNC(=O)c2cc(-c3ccc(SC(F)F)cc3)cc(NC(=O)C3CC3)n2)cc1 [Example I-180] | 100 | – | efficacy (beetle larvae killed) ([2]; application rate 100 g/ha): 100%
27 | 3.87 | 3.83 | – | N#Cc1ccc(CNC(=O)c2cc(-c3ccc(I)cc3)cc(NC(=O)C3CC3)n2)cc1 [Example I-050] | 83 | – | –
28 | – | 3.34 | 3.39 | N#Cc1ccc(CNC(=O)c2cc(-c3ccc(C(F)F)c(F)c3)cc(NC(=O)C3CC3)n2)cc1 [Example I-222] | 100 | – | efficacy (beetle larvae killed) ([2]; application rate 100 g/ha): 100%
29 | – | 3.00 | 3.17 | NS(=O)(=O)c1ccc(CNC(=O)c2cc(-c3ccc(OC(F)(F)F)cc3)cc(NC(=O)C3CC3)n2)cc1 [Example I-186] | 100 | – | –
